Laboratory results taken from patent US6348309B1, “Process for inactivating viruses in blood and blood products” (priority 1989, dated 2002).
Marks after values point to notes of the source that are not given here.

Columns and labels:
[1] = system: vesicular stomatitis virus (VSV); format: cell-based
[2] = system: VSV; format: cell-based, vesicular stomatitis virus
[3] = system: HIV-1; assay: MB/light treatment of HIV-1 in plasma, infectivity on MT-4 cells (Example 5); format: cell-based
[4] = system: HIV-1; assay: MB/light virus inactivation in plasma (Example 6, Table VI); format: cell-based; settings: illumination 10 min
[5] = system: SIV; assay: as above; format: cell-based; settings: illumination 15 min; * production conditions, plastic bag 250-300 ml plasma
[6] = system: Bovine Herpes; assay: as above; format: cell-based; settings: illumination 30 min; * production conditions, plastic bag 250-300 ml plasma
[7] = system: Suid Herpes Type 1; format: cell-based
[8] = system: Sindbis; format: cell-based
[9] = system: West Nile; assay: MB/light virus inactivation in plasma (Example 6, Table VI); format: cell-based; settings: illumination 60 min
[10] = system: Hog Cholera; format: cell-based
[11] = system: Vesicular Stomatitis; format: cell-based
[12] = system: Influenza; format: cell-based
[13] = system: Calici; format: cell-based
[14] = system: SV40; format: cell-based
[15] = system: adenovirus; assay: Photodynamic treatment of adenovirus with pre-incubation in the dark, titrated on FL cells (Example 7); format: cell-based; settings: MB 1 μM; for Virus Titer: illumination 30 min 150,000 Lux
[16] = system: adeno-virus; assay: Photodynamic treatment of adenovirus with freeze/thaw step (Example 8); format: cell-based
[17] = molecular target: T1, coagulation factor V (Homo sapiens, UniProt P12259); assay: Coagulation factor activity in human plasma right after MB addition (Example 9); format: biochemical; settings: no light
T1 construct: Varying amounts of MB were added to human plasma (2 ml aliquots); from tissue; host or cells: human plasma

[18] = molecular target: T2, coagulation factor IX (Homo sapiens, UniProt P00740); assay: as above; format: biochemical; settings: no light
T2 construct: Varying amounts of MB were added to human plasma (2 ml aliquots); from tissue; host or cells: human plasma

[19] = molecular target: T3, factor VIII (Homo sapiens, UniProt P00451); assay: Factor VIII content of plasma after MB and adsorbing agent (Example 14); format: biochemical; settings: fresh plasma + MB 10 μM, no adsorbing agent
T3 construct: MB was added to 250 ml fresh plasma; from tissue; host or cells: fresh plasma

[20] = molecular target: T4, factor V (Homo sapiens, UniProt P12259); assay: Factor V content of plasma after MB and adsorbing agent (Example 14); format: biochemical; settings: fresh plasma + MB 10 μM, no adsorbing agent
T4 construct: MB was added to 250 ml fresh plasma; from tissue; host or cells: fresh plasma

[21] = 1 to 2 mg/kg of body weight; cited from earlier work

T2 sequence (P00740 47-461): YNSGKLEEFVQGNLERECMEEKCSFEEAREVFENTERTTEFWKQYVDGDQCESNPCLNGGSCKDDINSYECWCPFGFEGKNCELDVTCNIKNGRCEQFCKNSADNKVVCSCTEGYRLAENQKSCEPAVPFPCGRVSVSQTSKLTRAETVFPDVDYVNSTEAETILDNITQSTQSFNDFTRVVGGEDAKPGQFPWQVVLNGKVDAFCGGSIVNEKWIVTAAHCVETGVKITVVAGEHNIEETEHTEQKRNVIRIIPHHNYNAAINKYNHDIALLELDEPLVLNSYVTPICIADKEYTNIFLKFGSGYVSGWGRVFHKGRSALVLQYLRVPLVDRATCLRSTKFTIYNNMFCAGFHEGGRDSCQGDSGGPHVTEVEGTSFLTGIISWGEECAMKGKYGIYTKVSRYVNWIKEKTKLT
T1 sequence (P12259 29-2224): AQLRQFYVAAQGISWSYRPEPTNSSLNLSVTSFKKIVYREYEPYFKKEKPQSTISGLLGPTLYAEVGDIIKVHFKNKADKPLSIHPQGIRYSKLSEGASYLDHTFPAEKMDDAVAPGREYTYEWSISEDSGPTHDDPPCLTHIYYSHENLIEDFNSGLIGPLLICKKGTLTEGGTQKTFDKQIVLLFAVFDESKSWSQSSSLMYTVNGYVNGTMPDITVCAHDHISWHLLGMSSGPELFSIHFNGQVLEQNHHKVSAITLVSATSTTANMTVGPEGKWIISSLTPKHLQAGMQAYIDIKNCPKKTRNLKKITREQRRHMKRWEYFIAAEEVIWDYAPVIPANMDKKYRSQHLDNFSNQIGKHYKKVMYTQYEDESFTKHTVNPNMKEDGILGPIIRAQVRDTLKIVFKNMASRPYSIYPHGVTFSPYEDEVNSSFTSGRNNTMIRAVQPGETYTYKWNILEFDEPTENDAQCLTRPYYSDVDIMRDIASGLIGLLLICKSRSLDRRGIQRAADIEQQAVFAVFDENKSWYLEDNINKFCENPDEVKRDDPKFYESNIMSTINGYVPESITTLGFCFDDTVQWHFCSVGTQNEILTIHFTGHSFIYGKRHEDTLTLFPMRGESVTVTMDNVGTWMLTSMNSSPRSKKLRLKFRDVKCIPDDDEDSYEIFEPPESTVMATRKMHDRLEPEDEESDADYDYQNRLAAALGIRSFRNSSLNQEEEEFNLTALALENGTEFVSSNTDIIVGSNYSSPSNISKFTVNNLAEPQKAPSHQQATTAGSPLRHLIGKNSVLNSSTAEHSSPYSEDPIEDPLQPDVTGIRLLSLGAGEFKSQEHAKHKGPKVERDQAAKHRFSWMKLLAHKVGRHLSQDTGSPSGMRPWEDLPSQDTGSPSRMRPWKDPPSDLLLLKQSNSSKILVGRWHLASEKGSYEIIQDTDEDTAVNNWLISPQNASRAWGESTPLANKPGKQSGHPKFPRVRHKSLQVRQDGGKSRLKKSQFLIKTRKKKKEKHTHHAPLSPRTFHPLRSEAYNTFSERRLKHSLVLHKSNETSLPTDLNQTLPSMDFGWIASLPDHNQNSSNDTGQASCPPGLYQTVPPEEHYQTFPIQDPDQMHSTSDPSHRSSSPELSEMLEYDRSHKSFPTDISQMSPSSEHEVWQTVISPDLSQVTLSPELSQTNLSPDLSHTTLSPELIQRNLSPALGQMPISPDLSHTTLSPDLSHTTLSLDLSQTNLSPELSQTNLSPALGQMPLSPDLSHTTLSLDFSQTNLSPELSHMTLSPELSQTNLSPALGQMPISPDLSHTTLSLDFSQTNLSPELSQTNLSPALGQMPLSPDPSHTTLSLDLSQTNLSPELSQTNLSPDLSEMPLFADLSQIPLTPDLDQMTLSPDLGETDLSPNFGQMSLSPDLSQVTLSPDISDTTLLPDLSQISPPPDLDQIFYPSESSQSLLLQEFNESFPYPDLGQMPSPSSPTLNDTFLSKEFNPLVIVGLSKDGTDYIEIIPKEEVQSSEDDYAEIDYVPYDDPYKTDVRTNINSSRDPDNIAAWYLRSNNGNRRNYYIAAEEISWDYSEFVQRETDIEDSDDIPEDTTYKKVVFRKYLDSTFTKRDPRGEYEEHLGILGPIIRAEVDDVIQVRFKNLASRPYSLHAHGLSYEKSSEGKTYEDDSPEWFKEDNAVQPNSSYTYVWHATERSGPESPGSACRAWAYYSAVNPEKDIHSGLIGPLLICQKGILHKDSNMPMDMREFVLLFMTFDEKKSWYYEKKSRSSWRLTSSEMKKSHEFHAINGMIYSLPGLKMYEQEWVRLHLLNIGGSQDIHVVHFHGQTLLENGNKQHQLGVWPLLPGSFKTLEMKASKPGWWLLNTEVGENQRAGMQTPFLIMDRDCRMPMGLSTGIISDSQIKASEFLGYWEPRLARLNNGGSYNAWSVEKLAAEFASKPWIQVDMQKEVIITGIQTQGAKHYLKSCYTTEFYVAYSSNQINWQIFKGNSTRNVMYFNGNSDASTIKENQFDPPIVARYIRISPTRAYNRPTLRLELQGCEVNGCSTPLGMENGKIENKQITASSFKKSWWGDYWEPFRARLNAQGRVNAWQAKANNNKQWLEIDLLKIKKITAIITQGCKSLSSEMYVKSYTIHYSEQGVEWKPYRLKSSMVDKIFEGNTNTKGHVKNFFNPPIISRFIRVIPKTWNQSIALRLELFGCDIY
T4 sequence (P12259 29-2224): as above
T3 sequence (P00451 20-1332 limits assumed): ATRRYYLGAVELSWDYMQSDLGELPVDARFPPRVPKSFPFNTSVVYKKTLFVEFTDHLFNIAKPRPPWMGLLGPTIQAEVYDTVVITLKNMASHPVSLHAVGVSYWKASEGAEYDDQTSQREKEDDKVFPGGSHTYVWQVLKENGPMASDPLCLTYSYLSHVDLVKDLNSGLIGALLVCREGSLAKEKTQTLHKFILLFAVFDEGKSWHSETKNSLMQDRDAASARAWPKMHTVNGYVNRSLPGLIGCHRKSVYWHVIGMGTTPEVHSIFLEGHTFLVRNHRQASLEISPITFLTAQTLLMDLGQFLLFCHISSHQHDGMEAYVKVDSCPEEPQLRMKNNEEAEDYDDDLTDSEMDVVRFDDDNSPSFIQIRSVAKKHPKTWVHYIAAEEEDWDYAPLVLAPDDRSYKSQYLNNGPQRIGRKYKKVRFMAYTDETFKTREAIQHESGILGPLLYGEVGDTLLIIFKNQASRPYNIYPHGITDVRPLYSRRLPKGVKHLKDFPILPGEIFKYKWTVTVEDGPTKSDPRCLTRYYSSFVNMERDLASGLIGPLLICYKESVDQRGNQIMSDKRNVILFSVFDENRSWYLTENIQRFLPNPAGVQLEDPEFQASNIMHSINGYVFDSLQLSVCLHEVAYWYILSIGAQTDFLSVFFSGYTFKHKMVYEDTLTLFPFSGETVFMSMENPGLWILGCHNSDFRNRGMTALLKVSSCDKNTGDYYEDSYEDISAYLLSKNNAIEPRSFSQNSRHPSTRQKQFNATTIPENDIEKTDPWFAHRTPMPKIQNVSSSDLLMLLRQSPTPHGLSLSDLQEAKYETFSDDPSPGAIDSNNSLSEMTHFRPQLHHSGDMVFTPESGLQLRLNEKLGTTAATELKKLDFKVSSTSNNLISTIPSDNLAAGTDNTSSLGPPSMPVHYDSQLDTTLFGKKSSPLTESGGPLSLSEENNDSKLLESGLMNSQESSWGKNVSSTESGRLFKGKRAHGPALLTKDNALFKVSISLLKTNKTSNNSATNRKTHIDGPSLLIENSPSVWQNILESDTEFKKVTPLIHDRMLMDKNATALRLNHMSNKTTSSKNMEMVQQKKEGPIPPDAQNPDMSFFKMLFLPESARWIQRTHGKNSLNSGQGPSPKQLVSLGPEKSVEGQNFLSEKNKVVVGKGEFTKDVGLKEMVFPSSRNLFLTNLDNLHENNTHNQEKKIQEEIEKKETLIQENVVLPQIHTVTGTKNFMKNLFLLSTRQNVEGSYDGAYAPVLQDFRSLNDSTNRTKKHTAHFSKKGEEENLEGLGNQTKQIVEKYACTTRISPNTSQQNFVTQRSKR
T3 sequence (P00451 1668-2351 limits assumed): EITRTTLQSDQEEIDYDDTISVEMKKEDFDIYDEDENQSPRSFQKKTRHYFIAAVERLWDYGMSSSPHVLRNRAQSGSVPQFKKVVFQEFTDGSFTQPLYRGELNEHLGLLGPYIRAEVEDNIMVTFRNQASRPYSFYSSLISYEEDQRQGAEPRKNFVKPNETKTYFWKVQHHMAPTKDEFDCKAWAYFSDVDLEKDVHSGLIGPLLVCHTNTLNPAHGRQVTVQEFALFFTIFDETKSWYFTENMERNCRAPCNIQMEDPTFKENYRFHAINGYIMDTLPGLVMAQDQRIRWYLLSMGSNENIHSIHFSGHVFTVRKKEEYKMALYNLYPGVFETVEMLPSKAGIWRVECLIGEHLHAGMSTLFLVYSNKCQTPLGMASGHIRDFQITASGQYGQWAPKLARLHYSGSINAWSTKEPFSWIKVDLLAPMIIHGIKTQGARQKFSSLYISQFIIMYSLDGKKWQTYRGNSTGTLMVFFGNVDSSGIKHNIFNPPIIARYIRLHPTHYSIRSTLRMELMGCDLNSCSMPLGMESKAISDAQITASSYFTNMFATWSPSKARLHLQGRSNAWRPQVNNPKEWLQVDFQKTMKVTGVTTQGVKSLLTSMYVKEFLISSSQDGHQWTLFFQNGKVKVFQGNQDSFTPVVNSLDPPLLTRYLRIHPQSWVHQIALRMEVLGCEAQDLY

CN(C)c1ccc2nc3ccc(=[N+](C)C)cc-3sc2c1 [MB, methylene blue]
reduction of infectious titer of VSV by irradiation [1]: more than 6 log10 | concentration of MB required for complete inactivation of VSV [2]: 0.5 µM | inactivation factor (VSV completely inactivated) [2]: more than 4 log10 | effect of the dye alone on the virus ([3]; MB 1 μM, no illumination): not detrimental to the virus | reduction of viral infectivity ([3]; MB 1 μM, within the first 10 minutes of light exposure): approx. 6 log10 steps | Log10 TCID50/ml HIV-1 ([3]; Sample A, MB 1 μM without light, 0 min): 6.00 Log10 TCID50/ml | Log10 TCID50/ml HIV-1 ([3]; Sample A, MB 1 μM without light, 2 min): 5.94 Log10 TCID50/ml | Log10 TCID50/ml HIV-1 ([3]; Sample A, MB 1 μM without light, 5 min): 5.94 Log10 TCID50/ml | Log10 TCID50/ml HIV-1 ([3]; Sample A, MB 1 μM without light, 10 min): 5.94 Log10 TCID50/ml | Log10 TCID50/ml HIV-1 ([3]; Sample A, MB 1 μM without light, 15 min): 6.06 Log10 TCID50/ml | Log10 TCID50/ml HIV-1 ([3]; Sample A, MB 1 μM without light, 30 min): 5.76 Log10 TCID50/ml | Log10 TCID50/ml HIV-1 ([3]; Sample A, MB 1 μM without light, 60 min): 5.70 Log10 TCID50/ml | Log10 TCID50/ml HIV-1 ([3]; Sample C, MB 1 μM + light 45,000 Lux, exposure 0 min): 5.82 Log10 TCID50/ml | Log10 TCID50/ml HIV-1 ([3]; Sample C, MB 1 μM + light 45,000 Lux, exposure 2 min): 3.37 Log10 TCID50/ml | Log10 TCID50/ml HIV-1 ([3]; Sample C, MB 1 μM + light 45,000 Lux, exposure 5 min): 1.5 Log10 TCID50/ml | Log10 TCID50/ml HIV-1 ([3]; Sample C, MB 1 μM + light 45,000 Lux, exposure 10 min): ≦0.5 Log10 TCID50/ml | Log10 TCID50/ml HIV-1 ([3]; Sample C, MB 1 μM + light 45,000 Lux, exposure 15 min): ≦0.5 Log10 TCID50/ml | Log10 TCID50/ml HIV-1 ([3]; Sample C, MB 1 μM + light 45,000 Lux, exposure 30 min): ≦0.5 Log10 TCID50/ml | Log10 TCID50/ml HIV-1 ([3]; Sample C, MB 1 μM + light 45,000 Lux, exposure 60 min): ≦0.5 Log10 TCID50/ml | Inactivation Rate [4]: >6.50 log10 TCID50 | Inactivation Rate [5]: >6.26 * log10 TCID50 | Inactivation Rate [6]: >8.11 * log10 TCID50 | Inactivation Rate [7]: 4.43 * log10 TCID50 | Inactivation Rate [8]: >9.73 log10 TCID50 | Inactivation Rate [9]: >6.50 log10 TCID50 | Inactivation Rate [10]: >5.92 * log10 TCID50 | Inactivation Rate [11]: >4.89 * log10 TCID50 | Inactivation Rate [12]: 5.10 log10 TCID50 | Inactivation Rate [13]: >3.9 * log10 TCID50 | Inactivation Rate [14]: >4.00 log10 TCID50 | Virus Titer ([15]; pre-incubation 0 h): 6.0 log10 TCID50 | Virus Titer ([15]; pre-incubation 1 h): 5.5 log10 TCID50 | Virus Titer ([15]; pre-incubation 4 h): 6.0 log10 TCID50 | Virus Titer ([15]; pre-incubation 24 h): 6.0 log10 TCID50 | change in viral infectivity ([15]; regardless of the pre-incubation time): no change in viral infectivity | Virus Titer ([16]; Sample C: F/T + MB + 60 min pre-incubation + 60 min irradiation): 2.5 Log10 TCID50 | Virus Titer ([16]; Sample D: MB + F/T, no irradiation): 7.5 Log10 TCID50 | Virus Titer ([16]; Sample E: MB + F/T + 10 min irradiation): 5.0 Log10 TCID50 | Virus Titer ([16]; Sample F: MB + F/T + 30 min irradiation): 5.0 Log10 TCID50 | Virus Titer ([16]; Sample G: MB + F/T + 60 min irradiation): 4.0 Log10 TCID50 | Factor V ([17]; Methylene Blue 1 μM): 0.76 E/ml | Factor V ([17]; Methylene Blue 2.5 μM): 0.78 E/ml | Factor V ([17]; Methylene Blue 5 μM): 0.74 E/ml | Factor V ([17]; Methylene Blue 10 μM): 0.54 E/ml | Factor V ([17]; Methylene Blue 20 μM): 0.44 E/ml | MB concentration from which factor V activity is inhibited [17]: about 10 μM | Factor IX ([18]; Methylene Blue 1 μM): 1.9 E/ml | Factor IX ([18]; Methylene Blue 2.5 μM): 1.6 E/ml | Factor IX ([18]; Methylene Blue 5 μM): 1.45 E/ml | Factor IX ([18]; Methylene Blue 10 μM): 1.20 E/ml | Factor IX ([18]; Methylene Blue 20 μM): 1.10 E/ml | MB concentration from which factor IX activity is inhibited [18]: 2.5 µM | Factor VIII [19]: 0.42 U/ml | Factor V [20]: 0.96 U/ml | side effects in therapeutic use [21]: without any significant side effects
